The source of these data is patent US20030036633A1, “DNA encoding bradykinin B1 receptor” (Merck & Co., Inc., priority 1994, published 2003).

As usually defined, the IC50 is the point on the concentration scale where inhibition reaches its midpoint.

For assay [1], the target named is T1, cloned human B1 bradykinin receptor in transiently transfected COS-7 cells (COS 33E9) (Homo sapiens, UniProt P46663).
T1 construct: the full-length open reading frame of the B1 DNA (encoding a protein of about 40.4 kDa =about base 209 to about base 1267); expressed in transfected cells; host or cells: COS-7 cells, transient electroporation of clone 33E9 (pcDNA3 library vector)
T1 sequence (P46663 1-353): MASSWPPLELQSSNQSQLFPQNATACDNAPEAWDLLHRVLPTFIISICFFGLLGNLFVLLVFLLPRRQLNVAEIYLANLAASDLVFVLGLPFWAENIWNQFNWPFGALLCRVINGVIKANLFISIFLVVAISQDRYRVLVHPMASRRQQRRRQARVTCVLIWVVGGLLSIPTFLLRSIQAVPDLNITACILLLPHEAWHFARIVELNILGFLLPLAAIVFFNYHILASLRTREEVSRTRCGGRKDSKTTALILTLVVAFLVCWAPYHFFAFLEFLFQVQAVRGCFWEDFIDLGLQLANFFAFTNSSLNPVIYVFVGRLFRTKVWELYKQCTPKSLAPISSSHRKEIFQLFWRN
Briefly: Displacement of 1 nM [3H]des-Arg10kallidin, membrane binding assay, COS 33E9. To be noted: for affinity for / displacement of [3H]des-Arg10kallidin from the cloned receptor, in words: cloned B1 receptor expressed in COS-7 cells. The procedure:
Transient expression of the cloned B1 bradykinin receptor in COS-7 cells was accomplished by electroporation using a Biorad Gene Pulser. […] Binding assays were performed at room temperature for 45 minutes. Reactions were terminated by filtration using an Inotech cell harvester onto glass fiber filters (Inotech) that had been briefly soaked in 0.3% polyethyleneimine. The filters were washed five times with 1 ml per well of cold PBS and counted in a liquid scintillation counter. Alternatively, reactions were collected using a Tomtec cell harvester 96 onto 0.3% polyethyleneimine presoaked glass fiber filters (Pharmacia, printed filtermat for use with the 1205 Betaplate). The filter was washed five times with a total of 10 ml per well of cold 1× PBS, dried and sealed in a bag (Pharmacia) containing scintillation fluid. Counting was accomplished using a LKB1205 Betaplate liquid scintillation counter.
On the technique in general: Loss of bound radioactivity is the signal in a displacement assay; it reports binding, not function.

The target in assay [2] is T2, B1 receptor in IMR-90 cells (Homo sapiens, UniProt P46663).
T2 construct: 33E9) with the B1 receptor in IMR-90 cells (IMR-90); endogenous in cells; host or cells: IMR-90 cells (ATCC CCL 186)
T2 sequence (P46663 1-353): T1 sequence (P46663 1-353)
In words: Displacement of 1 nM [3H]des-Arg10kallidin, membrane binding assay, IMR-90.

In assay [3] the target is T3, B1 bradykinin receptor present in human aorta (Homo sapiens, UniProt P46663).
T3 construct: The B1 bradykinin receptor present in human aorta; from tissue; host or cells: human aorta
T3 sequence (P46663 1-353): T1 sequence (P46663 1-353)
In words: Affinity at B1 bradykinin receptor present in human aorta. The assay is classed as binding. Conditions: R.W.R, unpublished data.

In assay [4] the target is T4, B1 receptor (Homo sapiens, UniProt P46663).
T4 construct: expressed in transfected cells; host or cells: Xenopus laevis oocytes injected with cRNA from a pool of about 800 library clones
T4 sequence (P46663 1-353): T1 sequence (P46663 1-353)
Briefly: Electrophysiology of cRNA-injected Xenopus oocytes monitoring the Ca2+ sensitive Cl- channel. To be noted: oocytes injected with cRNA of strongest positive pool. The format is cell-based.

Assay [5] deals with T5, B1 bradykinin receptor in IMR-90 cells (human, UniProt P46663 1-353).
T5 construct: whole, on cells; Endogenous receptor; also called B1 receptor expressed in IMR-90 cells
T5 sequence (looked up): T1 sequence (P46663 1-353)
In words: displacement of 1 nM [3H]des-Arg10kallidin, membrane binding assay, IMR-90 cells. The procedure: Binding assays were performed at room temperature for 45 minutes. Reactions were terminated by filtration using an Inotech cell harvester onto glass fiber filters (Inotech) that had been briefly soaked in 0.3% polyethyleneimine. The filters were washed five times with 1 ml per well of cold PBS and counted in a liquid scintillation counter. Alternatively, reactions were collected using a Tomtec cell harvester 96 onto 0.3% polyethyleneimine presoaked glass fiber filters (Pharmacia, printed filtermat for use with the 1205 Betaplate). The filter was washed five times with a total of 10 ml per well of cold 1× PBS, dried and sealed in a bag (Pharmacia) containing scintillation fluid. Counting was accomplished using a LKB₁₂₀₅ Betaplate liquid scintillation counter.
The IC₅₀'s were determined by the displacement of 1 nM [³H]des- Arg¹⁰kallidin in the membrane binding assay described above.

Assay [6] concerns the target cloned human B1 bradykinin receptor (clone 33E9) (human) (UniProt P46663). Briefly: displacement of 1 nM [3H]des-Arg10kallidin, membrane binding assay, COS-7 cells transiently transfected with clone 33E9.
Assay [7] has as its system IMR-90 cells. Briefly: IL-1beta treatment of IMR-90 cells, number of B1 bradykinin receptors. The assay is classed as cell-based, human.
Setting [8] is: displacement of 1 nM [3H]des-Arg10kallidin, membranes of transiently transfected COS-7 cells, read-out: IC50, COS 33E9.
[9] abbreviates: displacement of 1 nM [3H]des-Arg10kallidin, IMR-90 membranes, read-out: IC50, IMR-90.

“Also recorded” adds a separate entry of the source. Where two headings read alike, the source gives them in different places. Residues, ends and D or L forms follow the SMILES beside them.

`CC[C@H](C)[C@H](NC(=O)[C@H](Cc1ccc(O)cc1)NC(=O)[C@@H](NC(=O)[C@H](CCCNC(=N)N)NC(=O)[C@@H](N)CC(=O)O)C(C)C)C(=O)N[C@@H](Cc1cnc[nH]1)C(=O)N1CCC[C@H]1C(=O)N[C@@H](Cc1ccccc1)C(=O)O` [Angiotensin II]: the IC50 in assay [1] (setting [8]) and in assay [2] (setting [9]) was more than 10 µM in each case.
In the case of `NC(=O)CC[C@@H]1NC(=O)[C@H](Cc2ccccc2)NC(=O)[C@H](Cc2ccc(O)cc2)NC(=O)[C@@H](N)CSSC[C@@H](C(=O)N2CCC[C@H]2C(=O)N[C@@H](CCCN=C(N)N)C(=O)NCC(N)=O)NC(=O)[C@H](CC(N)=O)NC1=O` [Arg Vasopressin], the IC50 in assay [1] and in assay [2] was more than 10 µM in each case.
As to des-Arg^9bradykinin, the “affinity for / displacement of [3H]des-Arg10kallidin from the cloned receptor, in words” value (shortened to “affinity for / displacement”) in assay [1] is listed as “relatively low affinity”. For the same molecule, the “affinity for the B1 receptor in IMR-90 cells, in words” value in assay [2] (IMR-90 cells) is listed as “relatively low affinity”. The molecule further displayed an affinity in assay [3] of more than 1000 nM.
On to `CC(C)C[C@H](NC(=O)[C@H](Cc1ccccc1)NC(=O)CNC(=O)CNC(=O)[C@@H](N)Cc1ccc(O)cc1)C(=O)O` [Leu-Enkephalin], for which the IC50 in assay [1] and in assay [2] was more than 10 µM throughout.
Turning to `NC(N)=NCCC[C@H](NC(=O)[C@H](Cc1ccccc1)NC(=O)[C@@H]1CCCN1C(=O)[C@H](CO)NC(=O)[C@H](Cc1ccccc1)NC(=O)CNC(=O)[C@@H]1CCCN1C(=O)[C@@H]1CCCN1C(=O)[C@@H](N)CCCN=C(N)N)C(=O)O` [Bradykinin] (H-RPPGFSPFR-OH), the IC50 in assay [1] and in assay [2] was more than 10 µM each time.
On to des-Arg^10Leu^9kallidin, for which, in assay [1], the “affinity for / displacement” value is reported as “high affinity binding; also recorded: effectively displaces”. Further, the “block of des-Arg10kallidin response” value in assay [4] is “blocked”.
Regarding des-Arg^10kallidin, in assay [4], the “agonist response of Ca2+ sensitive Cl- channel” value is given as “produced a response”.
`N=C(N)NCCC[C@H](NC(=O)[C@H](Cc1ccccc1)NC(=O)[C@@H]1CCCN1C(=O)[C@H](CO)NC(=O)[C@H](Cc1ccccc1)NC(=O)CNC(=O)[C@@H]1CCCN1C(=O)[C@@H]1CCCN1)C(=O)O` [Bradykinin(2-9)] (H-PPGFSPFR-OH; N-terminus and C-terminus assumed): the IC50 in assay [1] (setting [8]) and in assay [2] (setting [9]) was more than 10 µM each time.
Take `CC[C@H](C)[C@H](NC(=O)[C@H](CC(=O)O)NC(=O)[C@H](CC(C)C)NC(=O)[C@H](Cc1cnc[nH]1)NC(=O)[C@@H]1CSSC[C@H](N)C(=O)N[C@@H](CO)C(=O)N[C@H]2CSSC[C@H](NC(=O)[C@H](CCC(=O)O)NC(=O)[C@H](CCCCN)NC(=O)[C@H](CC(=O)O)NC(=O)[C@H](CCSC)NC(=O)[C@H](CC(C)C)NC(=O)[C@H](CO)NC(=O)[C@H](CO)NC2=O)C(=O)N[C@@H](C(C)C)C(=O)N[C@@H](Cc2ccc(O)cc2)C(=O)N[C@@H](Cc2ccccc2)C(=O)N1)C(=O)N[C@H](C(=O)N[C@@H](Cc1c[nH]c2ccccc12)C(=O)O)[C@@H](C)CC` [Endothelin I]: the IC50 in assay [1] (setting [8]) and in assay [2] (setting [9]) was more than 1 µM in each case.
In the case of `CC[C@H](C)[C@@H]1NC(=O)[C@H](Cc2ccc(O)cc2)NC(=O)[C@@H](N)CSSC[C@@H](C(=O)N2CCC[C@H]2C(=O)N[C@@H](CC(C)C)C(=O)NCC(N)=O)NC(=O)[C@H](CC(N)=O)NC(=O)[C@H](CCC(N)=O)NC1=O` [Oxytocin], the IC50 in assay [1] (setting [8]) and in assay [2] (setting [9]) was more than 10 µM throughout.
For des-Arg^10HOE 140 (peptide), the IC50 in assay [5] was found to be 0.04 µM; in assay [6], 0.094 µM.
For des-Arg^9Leu^8bradykinin, the “affinity for / displacement” value in assay [1] was “high affinity binding”.
Regarding `N=C(N)NCCC[C@H](N)C(=O)N1CCC[C@H]1C(=O)N1CCC[C@H]1C(=O)NCC(=O)N[C@@H](Cc1ccccc1)C(=O)N[C@@H](CO)C(=O)N1CCC[C@H]1C(=O)O` [Bradykinin(1-7)] (H-RPPGFSP-OH), the IC50 in assay [1] and in assay [2] was more than 10 µM throughout.
For the molecule `CSCC[C@H](NC(=O)[C@H](CC(C)C)NC(=O)CNC(=O)[C@H](Cc1ccccc1)NC(=O)[C@H](Cc1ccccc1)NC(=O)[C@H](CCC(N)=O)NC(=O)[C@H](CCC(N)=O)NC(=O)[C@@H]1CCCN1C(=O)[C@H](CCCCN)NC(=O)[C@@H]1CCCN1C(=O)[C@@H](N)CCCN=C(N)N)C(N)=O` [Substance P], the half-maximal inhibitory concentration (IC50) in assay [1] (setting [8]) and in assay [2] (setting [9]) was more than 10 µM in each case.
In the case of `CC[C@H](C)[C@H](NC(=O)[C@H](CCCNC(=N)N)NC(=O)[C@H](CCCNC(=N)N)NC(=O)[C@H](CC(C)C)NC(=O)[C@H](Cc1ccccc1)NC(=O)CNC(=O)CNC(=O)[C@@H](N)Cc1ccc(O)cc1)C(=O)N[C@@H](CCCNC(=N)N)C(=O)N1CCC[C@H]1C(=O)N[C@@H](CCCCN)C(=O)N[C@@H](CC(C)C)C(=O)N[C@@H](CCCCN)C(=O)N[C@@H](Cc1c[nH]c2ccccc12)C(=O)N[C@@H](CC(=O)O)C(=O)N[C@@H](CC(N)=O)C(=O)N[C@@H](CCC(N)=O)C(=O)O` [Dynorphin(1-17)], the IC50 in assay [1] and in assay [2] was more than 7 µM in each case.
`CC[C@H](C)[C@H](NC(=O)[C@H](Cc1ccc(O)cc1)NC(=O)[C@@H]1CCCN1C(=O)[C@H](CCCNC(=N)N)NC(=O)[C@H](CCCNC(=N)N)NC(C)=O)C(=O)N[C@@H](CC(C)C)C(=O)O` [Acetylated Neurotensin(8-13)]: the IC50 in assay [1] and in assay [2] was more than 10 µM throughout.
In the case of IL-1β: cytokine IL-1β (R & D Systems), in assay [7], the “stimulation of the number of B1 bradykinin receptors” value was “approximately 7 fold”.
As for “[des-Arg^10],[3,4-^3H(N)]-kallidin [[^3H]des-Arg^10kallidin]”, the “affinity for / displacement” value in assay [1] was “high affinity binding”.
Take `NC(N)=NCCC[C@@H](N)C(=O)N[C@@H](CCCN=C(N)N)C(=O)N1CCC[C@H]1C(=O)N1C[C@H](O)C[C@H]1C(=O)NCC(=O)N[C@@H](Cc1cccs1)C(=O)N[C@@H](CO)C(=O)N1Cc2ccccc2C[C@@H]1C(=O)N1[C@H](C(=O)N[C@@H](CCCN=C(N)N)C(=O)O)C[C@@H]2CCCC[C@@H]21` [Hoe 140]: the IC50 in assay [1] (setting [8]) and in assay [2] (setting [9]) was more than 10 µM in each case.
